The text below walks through data of patent US9434724B2, “Quinuclidines for modulating alpha 7 activity” (priority 2014, dated 2016).

In one data set the target is CYP2C9 (Homo sapiens (Human), UniProt P11712). Briefly: Cytochrome P450 inhibition in human liver microsomes, CYP2C9. The following applies: read-out: 2C9 IC50, Protocol 1. On the technique in general: Microsomes from liver hold many membrane-bound enzymes, among them those of drug oxidation.
In data set [1] the target is T1, CYP2C19 (Homo sapiens (Human), UniProt P33261). Briefly: Cytochrome P450 inhibition in human liver microsomes, CYP2C19. The following applies: read-out: 2C19 IC50, Protocol 1.
Data set [2] has as its target T2, CYP3A4 (Homo sapiens (Human), UniProt P08684). The following applies: microsomes, 5 min.
The nature of the next data set: Human plasma stability. In kind it is in vitro ADME. The following applies: human, plasma; for % Remaining @ 2 h: 5 μM. In a few lines:
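Compound remaining was quantified by LC-MS/MS as peak-area ratio to internal standard relative to time 0, with half-lives from single-exponential fits. Protocol 1 incubated 1 μM in heparinized human plasma (pH 7.4, 37° C) to 120 min; protocol 2 used 5 μM, pH 7.4–8.0, 37° C, n=2, to 120 min.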

For another data set, the target named is CYP1A2 (Homo sapiens (Human), UniProt P05177). Briefly: Cytochrome P450 inhibition in human liver microsomes, CYP1A2. The settings on record: read-out: 1A2 IC50, Protocol 1.
Data set [3] in a line: Metabolic stability assay in human liver microsomes (HLM). The settings on record: human, microsomes, 1 μM. Type of data set: in vitro ADME. In a few lines:
(§1)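 In Protocol 1, compound was 1 μM final with NADPH at 37 °C, sampled at 0–45 min. In Protocol 2, 1.5 μM compound with 0.75 mg/mL microsomes (pre-NADPH mix) in 0.1 M potassium phosphate, 1 mM EDTA, pH 7.4 was pre-incubated 10 min, then NADPH started the reaction. Both: LC-MS/MS % remaining versus time 0, half-life from single-phase exponential fit.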

Data set [4] is described as follows: Metabolic stability assay in rat liver microsomes (RLM). The following applies: rat, microsomes, 1 μM. Type of data set: in vitro ADME. The gist of the method: as §1
Data set [5] concerns the target rat brain nicotinic receptor (α7 NAChR) (Rattus norvegicus (Rat), UniProt Q05941). In kind it is binding.
Data set [6] has as its target T1, CYP2C19. The following applies: microsomes, 45 min.
Another data set addresses CYP2D6 (Homo sapiens (Human), UniProt P10635). Kind of data set: Cytochrome P450 inhibition in human liver microsomes, CYP2D6. The settings on record: read-out: 2D6 IC50, Protocol 1.
Data set [7] addresses T2, CYP3A4. Briefly: Cytochrome P450 inhibition in human liver microsomes, CYP3A4.

Where two headings read alike, the source gives them in different places.

Sequence of CYP2D6 (P10635 whole entry): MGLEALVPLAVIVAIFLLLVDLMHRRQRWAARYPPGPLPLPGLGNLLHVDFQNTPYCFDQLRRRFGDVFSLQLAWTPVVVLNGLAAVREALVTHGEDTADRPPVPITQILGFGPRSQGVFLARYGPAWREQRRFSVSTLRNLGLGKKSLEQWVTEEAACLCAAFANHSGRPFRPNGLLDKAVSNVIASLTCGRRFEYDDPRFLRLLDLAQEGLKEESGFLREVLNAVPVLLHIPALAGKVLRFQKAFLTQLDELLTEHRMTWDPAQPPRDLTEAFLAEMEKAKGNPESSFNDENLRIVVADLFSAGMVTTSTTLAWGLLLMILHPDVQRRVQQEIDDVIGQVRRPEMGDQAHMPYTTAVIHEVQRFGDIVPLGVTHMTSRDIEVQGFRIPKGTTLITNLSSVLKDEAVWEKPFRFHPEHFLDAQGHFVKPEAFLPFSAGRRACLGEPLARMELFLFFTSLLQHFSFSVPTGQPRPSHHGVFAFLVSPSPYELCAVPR
Sequence of rat brain nicotinic receptor (α7 NAChR) (Q05941 23-502 limits assumed): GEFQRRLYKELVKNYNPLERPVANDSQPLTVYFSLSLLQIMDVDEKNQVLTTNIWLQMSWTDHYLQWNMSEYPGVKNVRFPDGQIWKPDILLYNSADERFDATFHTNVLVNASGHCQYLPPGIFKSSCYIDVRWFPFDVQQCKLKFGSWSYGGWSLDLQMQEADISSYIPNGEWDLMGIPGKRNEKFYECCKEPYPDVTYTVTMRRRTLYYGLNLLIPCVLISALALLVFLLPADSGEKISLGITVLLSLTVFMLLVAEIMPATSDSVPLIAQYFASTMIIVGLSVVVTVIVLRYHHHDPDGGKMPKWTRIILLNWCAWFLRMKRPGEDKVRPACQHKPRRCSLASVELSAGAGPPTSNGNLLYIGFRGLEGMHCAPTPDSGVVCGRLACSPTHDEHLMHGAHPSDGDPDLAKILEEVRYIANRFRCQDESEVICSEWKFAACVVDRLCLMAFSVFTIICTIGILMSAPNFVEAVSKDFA
T2 sequence (P08684 whole entry): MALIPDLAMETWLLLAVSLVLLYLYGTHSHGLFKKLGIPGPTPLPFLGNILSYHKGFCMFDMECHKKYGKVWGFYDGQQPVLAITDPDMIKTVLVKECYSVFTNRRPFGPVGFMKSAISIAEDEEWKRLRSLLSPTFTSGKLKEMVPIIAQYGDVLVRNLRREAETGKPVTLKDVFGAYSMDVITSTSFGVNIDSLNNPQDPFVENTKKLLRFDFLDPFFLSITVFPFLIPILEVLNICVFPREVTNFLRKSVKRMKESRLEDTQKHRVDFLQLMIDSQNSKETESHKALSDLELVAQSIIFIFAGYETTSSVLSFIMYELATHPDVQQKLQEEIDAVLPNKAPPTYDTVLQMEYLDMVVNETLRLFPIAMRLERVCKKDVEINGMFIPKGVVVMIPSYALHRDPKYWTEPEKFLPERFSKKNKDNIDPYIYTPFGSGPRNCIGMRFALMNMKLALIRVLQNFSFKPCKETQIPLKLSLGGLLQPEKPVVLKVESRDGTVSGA
T1 sequence (P33261 whole entry): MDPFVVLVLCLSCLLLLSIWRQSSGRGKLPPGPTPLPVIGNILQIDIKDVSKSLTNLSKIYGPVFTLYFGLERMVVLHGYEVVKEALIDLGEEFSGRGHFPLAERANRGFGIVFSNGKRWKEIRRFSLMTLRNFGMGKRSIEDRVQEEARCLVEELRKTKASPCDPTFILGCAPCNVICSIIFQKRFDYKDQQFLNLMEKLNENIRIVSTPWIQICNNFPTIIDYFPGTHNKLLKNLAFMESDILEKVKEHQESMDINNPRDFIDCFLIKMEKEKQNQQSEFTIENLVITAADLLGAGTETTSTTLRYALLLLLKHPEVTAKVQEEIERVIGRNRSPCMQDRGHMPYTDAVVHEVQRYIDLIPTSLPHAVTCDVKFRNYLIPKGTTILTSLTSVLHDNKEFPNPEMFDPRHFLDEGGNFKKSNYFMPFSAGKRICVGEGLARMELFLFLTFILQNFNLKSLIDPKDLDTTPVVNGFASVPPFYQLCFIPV
Sequence of CYP2C9 (P11712 whole entry): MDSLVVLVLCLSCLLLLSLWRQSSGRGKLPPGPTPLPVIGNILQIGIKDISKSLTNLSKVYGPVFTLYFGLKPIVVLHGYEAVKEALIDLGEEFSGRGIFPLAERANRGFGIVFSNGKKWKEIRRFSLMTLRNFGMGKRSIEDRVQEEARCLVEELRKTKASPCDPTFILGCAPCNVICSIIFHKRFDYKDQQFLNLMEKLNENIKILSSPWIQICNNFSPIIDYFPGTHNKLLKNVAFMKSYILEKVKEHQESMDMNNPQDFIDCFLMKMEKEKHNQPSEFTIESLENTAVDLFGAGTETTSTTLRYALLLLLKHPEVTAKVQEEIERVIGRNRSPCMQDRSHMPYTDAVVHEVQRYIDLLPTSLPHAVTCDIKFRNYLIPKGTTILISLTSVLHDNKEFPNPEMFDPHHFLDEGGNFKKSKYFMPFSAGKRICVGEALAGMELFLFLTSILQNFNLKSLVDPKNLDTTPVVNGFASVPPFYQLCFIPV
Sequence of CYP1A2 (P05177 whole entry): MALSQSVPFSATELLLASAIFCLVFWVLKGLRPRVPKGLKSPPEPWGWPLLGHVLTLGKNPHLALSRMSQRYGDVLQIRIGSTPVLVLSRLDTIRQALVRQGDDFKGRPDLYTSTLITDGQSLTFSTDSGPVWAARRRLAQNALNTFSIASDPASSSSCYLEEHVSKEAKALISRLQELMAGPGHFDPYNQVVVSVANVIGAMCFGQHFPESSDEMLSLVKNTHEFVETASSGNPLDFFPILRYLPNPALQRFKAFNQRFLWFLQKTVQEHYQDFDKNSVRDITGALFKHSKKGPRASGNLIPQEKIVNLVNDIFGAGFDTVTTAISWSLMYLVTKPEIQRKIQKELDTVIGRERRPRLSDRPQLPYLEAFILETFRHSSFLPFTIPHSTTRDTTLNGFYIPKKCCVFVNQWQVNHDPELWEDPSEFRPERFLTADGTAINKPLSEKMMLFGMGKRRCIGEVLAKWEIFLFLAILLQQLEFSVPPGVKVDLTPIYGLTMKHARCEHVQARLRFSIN

Broadly, the IC50 is the midpoint of a concentration-inhibition curve. As a reminder, the Ki is a dissociation constant, usually derived from enzyme kinetics or from competition with a known ligand. Low readings indicate tighter binding, high ones weaker binding. For the compound `O=C(OCC12CCN(CC1)CC2)c1c[nH]c2cc(F)cc(Br)c12` [Compound 41, quinuclidin-4-ylmethyl 4-bromo-6-fluoro-1H-indole-3-carboxylate], the IC50 on CYP2C9 is more than 10 µM; on CYP2C19 [1] it was more than 10 µM; on CYP3A4 [2], more than 10 µM; at CYP1A2 it was more than 10 µM; in data set [5], 0.76 µM. In addition, the T1/2 result in the data set “Human plasma stability” was “∞”. In addition, the “% Remaining @ 2 h” value in “Human plasma stability” came to 120.27%. Moreover, the HLM in [3] worked out at 7.55 mL/min/kg. For the same compound, the RLM in data set [4] worked out at 86.59 mL/min/kg. In addition, the Ki in data set [5] came out at 0.655 µM.

With `Cc1cc(Br)c2c(C(=O)OCC34CCN(CC3)CC4)c[nH]c2c1` [Compound 49, quinuclidin-4-ylmethyl 4-bromo-6-methyl-1H-indole-3-carboxylate], the IC50 against CYP3A4 [2] is more than 10 µM; at CYP1A2, more than 10 µM; in data set [5], 0.25 µM; on CYP2C19 [6], more than 10 µM. Moreover, the “% Remaining @ 2 h” value in “Human plasma stability” is 93.39%. In addition, in [3], the HLM was determined as 5.963 mL/min/kg. Besides, the RLM in data set [4] came out at 254.566 mL/min/kg. In [5], this compound came in with a Ki of 0.214 µM.

As for `COc1ccc2[nH]cc(C(=O)OCC34CCN(CC3)CC4)c2c1Br` [Compound 47, quinuclidin-4-ylmethyl 4-bromo-5-methoxy-1H-indole-3-carboxylate], the IC50 on CYP3A4 [2] is more than 10 µM; on CYP1A2, more than 10 µM; in [5], 0.0333 µM; against CYP2C19 [6], more than 10 µM. In addition, the “% Remaining @ 2 h” value in “Human plasma stability” was 72.43%. In [3], the HLM amounted to 13.5926 mL/min/kg. For the same compound, the RLM in data set [4] is 541.358 mL/min/kg. The compound further came in with a Ki in data set [5] of 0.0285 µM.

Take `Cc1cc(Cl)cc2[nH]cc(C(=O)OCC34CCN(CC3)CC4)c12` [Compound 50, quinuclidin-4-ylmethyl 6-chloro-4-methyl-1H-indole-3-carboxylate]: the IC50 at CYP2C9 was more than 10 µM; at CYP2C19 [1] it was more than 10 µM; on CYP3A4 [2], more than 10 µM; on CYP1A2, more than 10 µM; in [5], 1.29 µM. The T1/2 entry in the data set “Human plasma stability” is “∞”. Moreover, the “% Remaining @ 2 h” value in the data set “Human plasma stability” stood at 100.92%. The same compound displayed an HLM in [3] of 2.98 mL/min/kg. Besides, the RLM in [4] is recorded as 187.575 mL/min/kg. The same compound displayed a Ki in [5] of 1.1 µM.

Take `COc1cc(Br)c2c(C(=O)OCC34CCN(CC3)CC4)c[nH]c2c1` [Compound 48, quinuclidin-4-ylmethyl 4-bromo-6-methoxy-1H-indole-3-carboxylate]: the IC50 on CYP2D6 was more than 10 µM; on CYP1A2, more than 10 µM; on CYP3A4 [7] (read-out: 3A4 IC50 (Midazolam), substrate midazolam, Protocol 1) it was more than 10 µM; at CYP3A4 [7] (read-out: 3A4 IC50 (Testosterone), substrate testosterone, Protocol 1), more than 10 µM; in data set [5], 0.42 µM; at CYP2C19 [6] it was more than 10 µM. Also, in the data set “Human plasma stability”, the “% Remaining @ 2 h” value came out at 101.03%. In [3], this compound showed an HLM of 7.539 mL/min/kg. For the same compound, the RLM in [4] amounted to 69.1781 mL/min/kg. In data set [5], this compound had a Ki of 0.36 µM.

On to `Cc1cc(O)cc2[nH]cc(C(=O)OCC34CCN(CC3)CC4)c12` [Compound 83, quinuclidin-4-ylmethyl 6-hydroxy-4-methyl-1H-indole-3-carboxylate], for which the IC50 at CYP2C9 was more than 10 µM; on CYP2C19 [1], more than 10 µM; on CYP3A4 [2], more than 10 µM; at CYP1A2, more than 10 µM; in data set [5] it was 0.0318 µM. In “Human plasma stability”, the “% Remaining @ 2 h” value is listed as 71.57%. Moreover, the HLM in [3] is listed as 2.7 mL/min/kg. The compound also displayed an RLM in data set [4] of 14.09 mL/min/kg. Affinity in [5] was put at a Ki of 0.0279 µM.

As for `COc1cc2[nH]cc(C(=O)OCC34CCN(CC3)CC4)c2cc1C` [Compound 56, quinuclidin-4-ylmethyl 6-methoxy-5-methyl-1H-indole-3-carboxylate], the IC50 was more than 10 µM against CYP3A4 [2], more than 10 µM on CYP1A2, 0.644 µM in data set [5] and more than 10 µM on CYP2C19 [6]. For the same compound, the “% Remaining @ 2 h” value in “Human plasma stability” turned out to be 77.82%. The compound also gave an HLM in data set [3] of 4.868 mL/min/kg. Besides, the RLM in data set [4] is listed as 1196.24 mL/min/kg. Also, the Ki in data set [5] came to 0.552 µM.

`Cc1cc2c(C(=O)OCC34CCN(CC3)CC4)c[nH]c2cc1O` [Compound 55, quinuclidin-4-ylmethyl 6-hydroxy-5-methyl-1H-indole-3-carboxylate]: the IC50 on CYP2D6 is more than 10 µM; at CYP3A4 [2], more than 10 µM; at CYP1A2, more than 10 µM; in data set [5], 0.0523 µM; on CYP2C19 [6] it was more than 10 µM. Besides, the “% Remaining @ 2 h” value in the data set “Human plasma stability” is given as 40.33%. In addition, the HLM in [3] amounted to 10.3473 mL/min/kg. Moreover, the RLM in [4] is recorded as 45.1417 mL/min/kg. Moreover, in data set [5], the Ki stood at 0.0448 µM.

In the case of `COc1cc(C)c2c(C(=O)OCC34CCN(CC3)CC4)c[nH]c2c1` [Compound 37, quinuclidin-4-ylmethyl 6-methoxy-4-methyl-1H-indole-3-carboxylate], the IC50 on CYP2C9, at CYP2C19 [1], against CYP3A4 [2] and on CYP1A2 was more than 10 µM throughout. Besides, the T1/2 result in “Human plasma stability” was “∞”. Further, in “Human plasma stability”, the “% Remaining @ 2 h” value is 108.49%. In addition, the HLM in data set [3] is listed as 20.18 mL/min/kg. In data set [4], this compound yielded an RLM of 33.07 mL/min/kg.

Consider `Cc1cc(C#N)cc2[nH]cc(C(=O)OCC34CCN(CC3)CC4)c12` [Compound 60, quinuclidin-4-ylmethyl 6-cyano-4-methyl-1H-indole-3-carboxylate], for which the IC50 is more than 10 µM on CYP2D6; more than 10 µM on CYP3A4 [2]; more than 10 µM on CYP1A2; 0.474 µM in [5]; more than 10 µM at CYP2C19 [6]. In addition, the “% Remaining @ 2 h” value in “Human plasma stability” is listed as 89.46%. The HLM in data set [3] worked out at 15.0953 mL/min/kg. Moreover, the RLM in [4] stood at 78.5875 mL/min/kg. Moreover, in [5], the Ki amounted to 0.407 µM.

With `O=C(OCC12CCN(CC1)CC2)c1c[nH]c2cc(Cl)cc(Br)c12` [Compound 42, quinuclidin-4-ylmethyl 4-bromo-6-chloro-1H-indole-3-carboxylate], the IC50 on CYP2C9, at CYP2C19 [1], on CYP3A4 [2] and at CYP1A2 was more than 10 µM throughout. Besides, in “Human plasma stability”, the “% Remaining @ 2 h” value was determined as 72.21%. This compound registered an HLM in [3] of 12.43 mL/min/kg. The compound further yielded an RLM in data set [4] of 55.27 mL/min/kg.

For `Cc1cc(C)c2c(C(=O)OCC34CCN(CC3)CC4)c[nH]c2c1` [Compound 54, quinuclidin-4-ylmethyl 4,6-dimethyl-1H-indole-3-carboxylate], the IC50 at CYP3A4 [2] is more than 10 µM; on CYP1A2, more than 10 µM; in [5], 0.4 µM; against CYP2C19 [6], more than 10 µM. The “% Remaining @ 2 h” value in “Human plasma stability” is 89.87%. In data set [3], this compound gave an HLM of 5.294 mL/min/kg. In data set [4], the RLM is 175.357 mL/min/kg. Moreover, the Ki in data set [5] amounted to 0.343 µM.

As to `COc1cc(Cl)c2c(C(=O)OCC34CCN(CC3)CC4)c[nH]c2c1` [Compound 38, quinuclidin-4-ylmethyl 4-chloro-6-methoxy-1H-indole-3-carboxylate], the IC50 at CYP3A4 [2] is more than 10 µM; on CYP1A2, more than 10 µM; in [5], 0.396 µM; on CYP2C19 [6], more than 10 µM. Moreover, the T1/2 entry in “Human plasma stability” was “∞”. Besides, in the data set “Human plasma stability”, the “% Remaining @ 2 h” value is recorded as 96.52%. Further, in data set [3], the HLM turned out to be 8.15 mL/min/kg. For the same compound, the RLM in data set [4] was 76.79 mL/min/kg. The same compound showed a Ki in [5] of 0.341 µM.
